In patent US5545639A, “Method of inhibiting transformed cells” (The United States of America as represented by the …, priority 1994, dated 1996) one finds IC50, CC50 and IC100 data, which are given here for 1 molecule.

pIC50: −log10 of the molar value.

Holding throughout (assay): Dose response of growth, tumor cell line
The test system of one experiment is RXF-393. It is filed as cell-based. The conditions noted are these: Homo sapiens, RXF-393, renal cancer. As for the experimental part: (§1) Indeed, 70% of the cell lines were shown not only to experience precluded growth, but cell death, when exposed to less then 100 μM of the active ingredient.
The subject of another experiment is EKVX. It is filed as cell-based. As to conditions: Homo sapiens, non-small cell lung cancer. The procedure:
as §1

The test system of another experiment is HL-60 (TB). It is filed as cell-based. The conditions noted are these: Homo sapiens, leukemia. As for the experimental part:
as §1

Another experiment has as its system SN12C. It is filed as cell-based. The conditions noted are these: Homo sapiens, renal cancer. The procedure:
as §1

The next experiment concerns P388. It is filed as cell-based, murine. The conditions noted are these: P388, miscellaneous. As for the experimental part: as §1
Another experiment relates to P388/ADR. It is filed as cell-based, murine. The conditions noted are these: miscellaneous. As for the experimental part:
as §1

Where [1] appears, read: read-out: 50% Growth (Relative to Control).
The mark [2] stands for this setting: read-out: No Growth (Relative to Control).
The mark [3] stands for this setting: Mus musculus, read-out: 50% Growth (Relative to Control).
Where [4] appears, read: Mus musculus, read-out: No Growth (Relative to Control).

For the molecule `ClCc1ccc2ccc3ccc(CCl)nc3c2n1` [2,9-bis(chloromethyl)-1,10-phenanthroline], the pIC50 with RXF-393 (setting [1]) is 5.78; in the experiment on EKVX (setting [1]) it was 4.55; in the experiment on HL-60 (TB) (setting [1]) it was 5.74; with SN12C (setting [1]), 5.47; in the experiment on P388 (setting [3]) it was 6.13; in the experiment with P388/ADR (setting [3]) it was 6.45. In addition, the CC50 was 6.03 µM in the experiment with RXF-393 (read-out: 50% Loss (50% kill)); more than 100 µM in the experiment with EKVX (read-out: 50% Loss (50% kill)); 23 µM in the experiment with HL-60 (TB) (read-out: 50% Loss (50% kill)); more than 100 µM in the experiment with SN12C (read-out: 50% Loss (50% kill)); 25.1 µM in the experiment on P388 (read-out: 50% Loss (50% kill)); more than 100 µM in the experiment on P388/ADR (read-out: 50% Loss (50% kill)). Moreover, the IC100 was 3.16 µM in the experiment with RXF-393 (setting [2]); more than 100 µM with EKVX (setting [2]); 4.43 µM with HL-60 (TB) (setting [2]); more than 100 µM with SN12C (setting [2]); 3.01 µM in the experiment with P388 (setting [4]); 3.82 µM in the experiment on P388/ADR (setting [4]).
